Reference: patent publication US9326506B2, “Preparation method, agricultural composition and applications of natural brassinolide analogs” (CHENGDU NEWSUN CROPSCIENCE CO., LTD, priority 2012, dated 2016)

Test system: rice
Assay: Low temperature assay on rice seedlings
Type: in vivo
Method: According to a low temperature assay, we measured parameters including plant height, number of leaf, area of leaf, number of tiller, weight of root at low temperature to completely determine effects of the natural brassinolide analogues on the resistance to low temperature of a plant.
The natural brassinolide analogues, BR1, BR2, BR3, BR4, BR5 and BR6, used herein, were those prepared by the method of Example 1. Respectively the analogues were dissolved into 95% (V/V) ethanol solution, and then diluted with pure water to 1 mg/L, 0.1 mg/L, 0.01 mg/L, 0.001 mg/L and 0.0001 mg/L. In addition, pure water was used as a control.
After rice seeds were disinfected by using 5% sodium hypochlorite solution treatment, they were rinsed with distilled water until their pH>7, placed into a petri dish in a dark incubator, and cultured by using water at 30° C.±2° C. for 9 days. Then respectively the nine-day-old etiolated seedlings of rice were immersed in the above solutions containing different concentrations of the natural brassinolide analogues or pure water, and cultured at the temperature of 1° C., 2° C., 3° C., 4° C. and 5° C. for 24 hr. The parameters including plant height, area of leaf and weight of root after 3, 6, 9 and 12 days and number of leaf and number of tiller after 12 days were measured.

Which Area of leaf (0.001 mg/l, 2 °C, 6 days) does the source give for `C=C(C(C)C)[C@@H](O)[C@H](O)[C@@H](C)[C@H]1CCC2C3COC(=O)C4C[C@H](O)[C@H](O)C[C@]4(C)C3CC[C@@]21C` (stereo partly shown) [BR3] here?
Its Area of leaf is 11.6 cm^2.

What about the Height (0.001 mg/l, 2 °C, 6 days) of the same compound?
The Height was 7.1 cm.

And the Weight of root (0.001 mg/l, 2 °C, 6 days)?
Its Weight of root is 3.0 g.

And the Area of leaf (0.001 mg/l, 2 °C, 9 days)?
Its Area of leaf is 12 cm^2.

What about the Height (0.001 mg/l, 2 °C, 9 days) of the same compound?
The Height was 7.1 cm.

What about the Weight of root (0.001 mg/l, 2 °C, 9 days) of the same compound?
Its Weight of root is 3.1 g.

What about the Area of leaf (0.001 mg/l, 2 °C, 12 days) of the same compound?
Its Area of leaf is 13.1 cm^2.

What about the Height (0.001 mg/l, 2 °C, 12 days) of the same compound?
Its Height is 7.3 cm.

And the Number of leaf (0.001 mg/l, 2 °C, 12 days)?
The Number of leaf was 3.

And the Number of tiller (0.001 mg/l, 2 °C, 12 days)?
Its Number of tiller is 3.

And the Weight of root (0.001 mg/l, 2 °C, 12 days)?
Its Weight of root is 3.9 g.

And the Area of leaf (0.001 mg/l, 3 °C, 3 days)?
The Area of leaf was 10 cm^2.

And the Height (0.001 mg/l, 3 °C, 3 days)?
The Height was 7 cm.

What about the Weight of root (0.001 mg/l, 3 °C, 3 days) of the same compound?
Its Weight of root is 2.5 g.

What about the Area of leaf (0.001 mg/l, 3 °C, 6 days) of the same compound?
The Area of leaf was 12 cm^2.

What about the Height (0.001 mg/l, 3 °C, 6 days) of the same compound?
Its Height is 7.2 cm.

And the Weight of root (0.001 mg/l, 3 °C, 6 days)?
Its Weight of root is 2.7 g.

What about the Area of leaf (0.001 mg/l, 3 °C, 9 days) of the same compound?
The Area of leaf was 12.2 cm^2.

What about the Height (0.001 mg/l, 3 °C, 9 days) of the same compound?
Its Height is 7.3 cm.

And the Weight of root (0.001 mg/l, 3 °C, 9 days)?
Its Weight of root is 2.9 g.

What about the Area of leaf (0.001 mg/l, 3 °C, 12 days) of the same compound?
The Area of leaf was 13 cm^2.

And the Height (0.001 mg/l, 3 °C, 12 days)?
Its Height is 7.4 cm.

And the Number of leaf (0.001 mg/l, 3 °C, 12 days)?
The Number of leaf was 3.

And the Number of tiller (0.001 mg/l, 3 °C, 12 days)?
The Number of tiller was 2.

And the Weight of root (0.001 mg/l, 3 °C, 12 days)?
The Weight of root was 2.9 g.

And the Area of leaf (0.001 mg/l, 4 °C, 3 days)?
The Area of leaf was 10 cm^2.

What about the Height (0.001 mg/l, 4 °C, 3 days) of the same compound?
The Height was 7.1 cm.

And the Weight of root (0.001 mg/l, 4 °C, 3 days)?
The Weight of root was 2.5 g.

What about the Area of leaf (0.001 mg/l, 4 °C, 6 days) of the same compound?
The Area of leaf was 12 cm^2.

What about the Height (0.001 mg/l, 4 °C, 6 days) of the same compound?
Its Height is 7.3 cm.

What about the Weight of root (0.001 mg/l, 4 °C, 6 days) of the same compound?
Its Weight of root is 2.6 g.

What about the Area of leaf (0.001 mg/l, 4 °C, 9 days) of the same compound?
The Area of leaf was 13 cm^2.

And the Height (0.001 mg/l, 4 °C, 9 days)?
The Height was 7.4 cm.

What about the Weight of root (0.001 mg/l, 4 °C, 9 days) of the same compound?
Its Weight of root is 2.9 g.

And the Area of leaf (0.001 mg/l, 4 °C, 12 days)?
Its Area of leaf is 13.1 cm^2.

What about the Height (0.001 mg/l, 4 °C, 12 days) of the same compound?
Its Height is 7.5 cm.

And the Number of leaf (0.001 mg/l, 4 °C, 12 days)?
Its Number of leaf is 3.

And the Number of tiller (0.001 mg/l, 4 °C, 12 days)?
Its Number of tiller is 2.

What about the Weight of root (0.001 mg/l, 4 °C, 12 days) of the same compound?
Its Weight of root is 2.9 g.

And the Area of leaf (0.001 mg/l, 5 °C, 3 days)?
The Area of leaf was 10.2 cm^2.

What about the Height (0.001 mg/l, 5 °C, 3 days) of the same compound?
Its Height is 7.2 cm.

What about the Weight of root (0.001 mg/l, 5 °C, 3 days) of the same compound?
The Weight of root was 2.8 g.

And the Area of leaf (0.001 mg/l, 5 °C, 6 days)?
The Area of leaf was 14 cm^2.

What about the Height (0.001 mg/l, 5 °C, 6 days) of the same compound?
Its Height is 7.5 cm.

What about the Weight of root (0.001 mg/l, 5 °C, 6 days) of the same compound?
The Weight of root was 2.9 g.

What about the Area of leaf (0.001 mg/l, 5 °C, 9 days) of the same compound?
Its Area of leaf is 15.4 cm^2.

What about the Height (0.001 mg/l, 5 °C, 9 days) of the same compound?
Its Height is 7.8 cm.

What about the Weight of root (0.001 mg/l, 5 °C, 9 days) of the same compound?
Its Weight of root is 3.0 g.

And the Area of leaf (0.001 mg/l, 5 °C, 12 days)?
Its Area of leaf is 16 cm^2.

What about the Height (0.001 mg/l, 5 °C, 12 days) of the same compound?
Its Height is 7.9 cm.

What about the Number of leaf (0.001 mg/l, 5 °C, 12 days) of the same compound?
Its Number of leaf is 3.

And the Number of tiller (0.001 mg/l, 5 °C, 12 days)?
The Number of tiller was 3.

What about the Weight of root (0.001 mg/l, 5 °C, 12 days) of the same compound?
Its Weight of root is 3.7 g.

And the Area of leaf (0.01 mg/l, 1 °C, 3 days)?
The Area of leaf was 10 cm^2.

What about the Height (0.01 mg/l, 1 °C, 3 days) of the same compound?
Its Height is 7.0 cm.

What about the Weight of root (0.01 mg/l, 1 °C, 3 days) of the same compound?
Its Weight of root is 2.8 g.

And the Area of leaf (0.01 mg/l, 1 °C, 6 days)?
The Area of leaf was 11.6 cm^2.

What about the Height (0.01 mg/l, 1 °C, 6 days) of the same compound?
The Height was 7.1 cm.

What about the Weight of root (0.01 mg/l, 1 °C, 6 days) of the same compound?
The Weight of root was 3.0 g.

And the Area of leaf (0.01 mg/l, 1 °C, 9 days)?
The Area of leaf was 12.4 cm^2.

And the Height (0.01 mg/l, 1 °C, 9 days)?
Its Height is 7.4 cm.

And the Weight of root (0.01 mg/l, 1 °C, 9 days)?
Its Weight of root is 3.1 g.

And the Area of leaf (0.01 mg/l, 1 °C, 12 days)?
The Area of leaf was 13.6 cm^2.

What about the Height (0.01 mg/l, 1 °C, 12 days) of the same compound?
Its Height is 7.5 cm.

What about the Number of leaf (0.01 mg/l, 1 °C, 12 days) of the same compound?
Its Number of leaf is 3.

What about the Number of tiller (0.01 mg/l, 1 °C, 12 days) of the same compound?
The Number of tiller was 3.

And the Weight of root (0.01 mg/l, 1 °C, 12 days)?
Its Weight of root is 3.9 g.

What about the Area of leaf (0.01 mg/l, 2 °C, 3 days) of the same compound?
Its Area of leaf is 10.1 cm^2.

What about the Height (0.01 mg/l, 2 °C, 3 days) of the same compound?
Its Height is 7.1 cm.

And the Weight of root (0.01 mg/l, 2 °C, 3 days)?
Its Weight of root is 2.8 g.

And the Area of leaf (0.01 mg/l, 2 °C, 6 days)?
Its Area of leaf is 11 cm^2.

What about the Height (0.01 mg/l, 2 °C, 6 days) of the same compound?
Its Height is 7.2 cm.

And the Weight of root (0.01 mg/l, 2 °C, 6 days)?
Its Weight of root is 3.1 g.

And the Area of leaf (0.01 mg/l, 2 °C, 9 days)?
The Area of leaf was 12.5 cm^2.

What about the Height (0.01 mg/l, 2 °C, 9 days) of the same compound?
The Height was 7.4 cm.

What about the Weight of root (0.01 mg/l, 2 °C, 9 days) of the same compound?
Its Weight of root is 3 g.

What about the Area of leaf (0.01 mg/l, 2 °C, 12 days) of the same compound?
Its Area of leaf is 13.4 cm^2.

And the Height (0.01 mg/l, 2 °C, 12 days)?
Its Height is 7.5 cm.

And the Number of leaf (0.01 mg/l, 2 °C, 12 days)?
Its Number of leaf is 3.

And the Number of tiller (0.01 mg/l, 2 °C, 12 days)?
Its Number of tiller is 3.

And the Weight of root (0.01 mg/l, 2 °C, 12 days)?
The Weight of root was 3.2 g.

What about the Area of leaf (0.01 mg/l, 3 °C, 3 days) of the same compound?
The Area of leaf was 10.2 cm^2.

And the Height (0.01 mg/l, 3 °C, 3 days)?
Its Height is 7.1 cm.

And the Weight of root (0.01 mg/l, 3 °C, 3 days)?
The Weight of root was 2.5 g.

What about the Area of leaf (0.01 mg/l, 3 °C, 6 days) of the same compound?
Its Area of leaf is 12 cm^2.

And the Height (0.01 mg/l, 3 °C, 6 days)?
The Height was 7.3 cm.

And the Weight of root (0.01 mg/l, 3 °C, 6 days)?
The Weight of root was 2.7 g.

And the Area of leaf (0.01 mg/l, 3 °C, 9 days)?
Its Area of leaf is 12.1 cm^2.
